Test results reported in publication PMC6013238, “Development of novel NEMO-binding domain mimetics for inhibiting IKK/NF-κB activation” (PLoS Biology, 2018).
Values joined by “and” are separate entries in the source; they are usually repeats but may differ in a detail not shown here. Equal entries are not always repeated.

Key:
[1] = Hematological measures in acutely treated mice; assay type: in vivo, mouse; details: SR12343 30 mg/kg i.p. 30 min before LPS 10 mg/kg, 2 h; mean ± SD
Experimental: To determine their NF-κB inhibitory effects in vivo, SR12343 and SR12460 were tested in an acute model of LPS-induced systemic endotoxemia. C57BL/6J mice were pretreated with vehicle control, 8K-NBD peptide, or NBD mimetics at 10 mg/kg for 30 min, followed by LPS induction at 10 mg/kg (Fig 6B). Lung and liver were harvested 2–4 h post treatment for qRT-PCR analysis of NF-κB target genes. […] Despite lower plasma and tissue concentrations of SR12343 compared to SR12460, its inhibition of NF-κB/IKK in liver and lung were greater than that of SR12460 (Fig 6C). Similarly, acute treatment with SR12343 also affected the LPS-induced expression of NF-κB target genes at protein level. The extent of phosphorylation of IκBα and the levels of COX-2 were reduced in lung and liver tissues treated with SR12343 (Fig 6D and 6E). […] However, no significant differences in lung histopathology were observed. Finally, there was a slight reduction in the number of white blood cells and neutrophils in the SR12343-treated group (Table 2).
Nine mice (male; C57BL/6, 9–13 wk) were randomly divided into 3 groups with 3 mice in each group. Mice were injected i.p. with vehicle (DMSO:Tween80:H2O, 10:10:80) or small-molecule SR12343 (30 mg/kg) for 30 min and then injected i.p. with saline (1 ml/kg) or LPS (10 mg/kg in saline). After 2 h, mice were euthanized by CO2 asphyxiation prior to blood sampling via cardiac puncture. The blood from each mouse was put into 2 collection tubes with coagulant or anticoagulant heparin (approximately 0.6 mL each). The samples in the tubes coated with the anticoagulant heparin were hand-mixed several times and placed on wet ice for hematological analysis using an automatic hematology analyzer (Hemavet 950FS; Drew Scientific, Miami Lakes, FL). Samples in tubes containing no anticoagulant were allowed to clot before centrifugation and submission for serum biochemical analysis using the VetScan VS2 Analyzer with the Comprehensive Diagnostic Profile reagent rotor (Abaxis, Union City, CA). The ALT, AST, and […] activities in the serum were quantitated by a colorimetric, enzymatic method using the Clinical Chemistry Analyzer Cobas c311 (Roche Diagnostics, Risch-Rotkreuz, Switzerland) as per the manufacturer’s instructions.

mdx mice = experiment: Chronic treatment of mdx mice, qRT-PCR of eMyHC and Pax7 in TA muscle; assay type: in vivo, mouse; details: Fig 7D, SR 30 mg/kg, 8K-NBD 10 mg/kg, 4 wk, single mice
Source text: Fig 7 NBD mimetics improve muscular pathology and grip strength in mdx mice. (A) Shown is the treatment regimen with NBD mimetics in mdx mice. (B) Hematoxylin–eosin staining of TA muscle from 7-wk-old, treated or untreated mdx mice. Images were taken at magnification of 20×. Representative images were shown for each treatment group. […] (E) TA muscle from 7-wk-old, treated or untreated mdx mice was stained with laminin by IHC to outline myofibers. Overall images of TA muscle were shown on the left side, and the inset panel images were shown on the right side. (F) Quantitation of minimum Feret diameter in centrally and noncentrally nucleated myofibers. (G) Forelimb force determined by grip strength test. […] Underlying data can be found in S1 Data. eMyHC, embryonic myosin heavy chain; IHC, immunohistochemistry; NBD, NEMO-binding domain; NEMO, NF-κB essential modulator; Pax7, paired box protein 7; qRT-PCR, quantitative real-time polymerase chain reaction; TA, tibialis anterior.
To determine whether SR12343 and SR12460 improve muscle pathology, TA muscle was stained with hematoxylin–eosin to assess inflammatory infiltration, necrosis, central nucleation, and fibrosis. […] To further quantitate the extent of inflammation in mdx muscle tissues, diaphragm and TA muscle were immunostained for cluster of differentiation 68 (CD68), a macrophage marker. […]

## O=C(CNc1ccc(Cl)cn1)NCCc1cccc(Br)c1 [SR12343]
[1]
  Hematocrit: 53.0 ± 1.5%
  Hemoglobin: 15.3 ± 0.4 g/dL
  Mean corpuscular hemoglobin: 14.8 ± 0.2 pg
  Mean corpuscular hemoglobin concentration: 28.9 ± 0.2 g/dL
  Mean corpuscular volume: 51.2 ± 1.0 fL
  Mean platelet volume: 5.7 ± 0.8 fL
  Platelets: 170.7 ± 64.0 K/μL
  Red blood cells: 10.4 ± 0.3 M/μL
  Red cell distribution width: 15.0 ± 0.2%
  White blood cells: 7.4 ± 3.3 K/μL
Mdx mice
  Pax7 mRNA in TA muscle (qRT-PCR): 1.512 and 1.485 and 1.5466 and 1.253 and 1.1889 and 1.394
